# Laboratory results from patent publication US20060199214A1, “Incorporation of modified nucleotides by archaeon DNA polymerases and related methods” (priority 1999, published 2006).
# How the values were obtained:
# [1] = target: T1, 9° N™ (exo-)/A485L DNA polymerase (Thermococcus sp., UniProt Q56366, A485L/D141A/E143A); type: biochemical, Thermococcus sp. 9° N-7
# T1 construct: made in house
# Method: (§1) The 2X cocktail was split in half and 9° N™ (exo-)/A485L DNA polymerase or Thermo Sequenase™ was added to a final concentration of 0.04 U/μl. […] Reactions were thermal cycled as follows: • 94° C. 5 minutes • 25 cycles at: • 94° C. 30 seconds • 55° C. 30 seconds • 72° C. 30 seconds • 72° C. 7 minutes
# [2] = target: human cytomegalovirus (HCMV) DNA polymerase (Human cytomegalovirus, UniProt P08546); details: Reid, et al.; cited from earlier work
# [3] = target: herpes virus type 2 (HSV-2) DNA polymerase (Human herpesvirus 2, UniProt P89453); details: Reid, et al.; cited from earlier work
# [4] = target: T2, Vent® (exo-)/A488L DNA polymerase (Thermococcus litoralis, UniProt P30317, A488L/D141A/DEL1082-1471/DEL495-1032/E143A); type: biochemical; details: Vent (exo-)/A488L vs Vent (exo-); FIG. 6
# T2 construct: made in house
# [5] = target: human DNA polymerase alpha (Homo sapiens, UniProt P09884); details: Reid, et al.; cited from earlier work
# [6] = tested on: Thermo Sequenase™ DNA polymerase; assay: Titration assay of chain terminator incorporation by Thermo Sequenase; type: biochemical; details: FIG. 9
# Method: Samples were then heated at 72° C. for 3 minutes and separated on a QuickPoint DNA sequencing gel (NOVEX, San Diego, Calif.) run at 1200 volts. The gel was fixed by soaking in 10% acetic acid/10% ethanol, dried, and polymerization products visualized by autoradiography.
# In a related experiment dye-acyclo-CTP incorporation by the analogous […] variant was evaluated.
# as §1
# T1 sequence (Q56366 whole entry D141A/E143A/A485L): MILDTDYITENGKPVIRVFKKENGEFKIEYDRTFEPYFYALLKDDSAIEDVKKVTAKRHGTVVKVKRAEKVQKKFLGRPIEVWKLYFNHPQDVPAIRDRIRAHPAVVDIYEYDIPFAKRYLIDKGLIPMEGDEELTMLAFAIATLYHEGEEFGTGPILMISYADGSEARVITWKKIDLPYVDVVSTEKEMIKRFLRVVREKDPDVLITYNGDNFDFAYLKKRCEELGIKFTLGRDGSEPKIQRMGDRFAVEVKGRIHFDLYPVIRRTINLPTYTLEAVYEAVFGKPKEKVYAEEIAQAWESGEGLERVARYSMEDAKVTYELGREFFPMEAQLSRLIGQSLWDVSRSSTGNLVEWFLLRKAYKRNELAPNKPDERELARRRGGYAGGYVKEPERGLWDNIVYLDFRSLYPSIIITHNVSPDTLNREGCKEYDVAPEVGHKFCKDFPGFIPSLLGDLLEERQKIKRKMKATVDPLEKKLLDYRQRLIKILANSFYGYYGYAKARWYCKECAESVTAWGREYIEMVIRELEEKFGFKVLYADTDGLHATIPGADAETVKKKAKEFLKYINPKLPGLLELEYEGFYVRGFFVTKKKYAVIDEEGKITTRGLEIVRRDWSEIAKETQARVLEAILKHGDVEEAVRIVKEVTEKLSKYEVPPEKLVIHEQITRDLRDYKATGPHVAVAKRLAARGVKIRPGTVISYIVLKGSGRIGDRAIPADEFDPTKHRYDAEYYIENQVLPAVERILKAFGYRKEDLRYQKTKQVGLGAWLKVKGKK
# Chain of human DNA polymerase alpha (P09884 whole entry): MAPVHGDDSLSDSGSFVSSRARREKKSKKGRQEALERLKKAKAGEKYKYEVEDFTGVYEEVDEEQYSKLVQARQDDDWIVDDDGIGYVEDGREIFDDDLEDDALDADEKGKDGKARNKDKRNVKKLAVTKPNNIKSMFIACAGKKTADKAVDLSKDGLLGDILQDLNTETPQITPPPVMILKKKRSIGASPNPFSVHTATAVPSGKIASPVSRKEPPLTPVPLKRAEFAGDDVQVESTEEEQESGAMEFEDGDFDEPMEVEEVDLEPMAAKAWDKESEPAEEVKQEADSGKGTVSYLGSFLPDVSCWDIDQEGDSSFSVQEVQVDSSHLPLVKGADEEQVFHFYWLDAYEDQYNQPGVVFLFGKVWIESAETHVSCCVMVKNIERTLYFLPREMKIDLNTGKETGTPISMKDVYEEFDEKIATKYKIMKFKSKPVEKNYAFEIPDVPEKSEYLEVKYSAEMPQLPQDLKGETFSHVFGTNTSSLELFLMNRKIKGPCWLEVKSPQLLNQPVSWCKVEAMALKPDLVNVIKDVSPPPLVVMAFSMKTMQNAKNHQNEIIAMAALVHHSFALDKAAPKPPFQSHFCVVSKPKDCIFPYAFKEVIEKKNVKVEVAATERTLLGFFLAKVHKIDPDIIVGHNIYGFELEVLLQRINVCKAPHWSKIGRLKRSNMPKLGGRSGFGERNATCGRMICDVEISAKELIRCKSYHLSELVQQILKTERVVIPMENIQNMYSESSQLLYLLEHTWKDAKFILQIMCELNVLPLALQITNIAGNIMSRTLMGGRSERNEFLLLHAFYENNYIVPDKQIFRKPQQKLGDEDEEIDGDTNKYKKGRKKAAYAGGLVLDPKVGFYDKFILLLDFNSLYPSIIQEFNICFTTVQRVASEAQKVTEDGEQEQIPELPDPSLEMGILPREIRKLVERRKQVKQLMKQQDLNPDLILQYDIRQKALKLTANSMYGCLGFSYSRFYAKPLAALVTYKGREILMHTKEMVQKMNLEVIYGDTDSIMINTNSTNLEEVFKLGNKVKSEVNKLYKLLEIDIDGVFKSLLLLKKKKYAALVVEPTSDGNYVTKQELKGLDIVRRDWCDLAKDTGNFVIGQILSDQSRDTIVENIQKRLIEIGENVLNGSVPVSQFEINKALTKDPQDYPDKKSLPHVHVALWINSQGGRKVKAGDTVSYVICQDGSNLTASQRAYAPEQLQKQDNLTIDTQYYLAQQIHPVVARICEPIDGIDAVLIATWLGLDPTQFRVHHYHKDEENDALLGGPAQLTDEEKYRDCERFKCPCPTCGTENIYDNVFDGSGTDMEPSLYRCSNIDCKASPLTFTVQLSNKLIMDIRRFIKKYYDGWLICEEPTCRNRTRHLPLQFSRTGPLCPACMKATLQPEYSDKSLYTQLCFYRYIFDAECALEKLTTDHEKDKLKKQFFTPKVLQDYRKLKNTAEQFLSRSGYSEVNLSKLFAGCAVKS
# Chain of human DNA polymerase alpha (Q14181 whole entry partner): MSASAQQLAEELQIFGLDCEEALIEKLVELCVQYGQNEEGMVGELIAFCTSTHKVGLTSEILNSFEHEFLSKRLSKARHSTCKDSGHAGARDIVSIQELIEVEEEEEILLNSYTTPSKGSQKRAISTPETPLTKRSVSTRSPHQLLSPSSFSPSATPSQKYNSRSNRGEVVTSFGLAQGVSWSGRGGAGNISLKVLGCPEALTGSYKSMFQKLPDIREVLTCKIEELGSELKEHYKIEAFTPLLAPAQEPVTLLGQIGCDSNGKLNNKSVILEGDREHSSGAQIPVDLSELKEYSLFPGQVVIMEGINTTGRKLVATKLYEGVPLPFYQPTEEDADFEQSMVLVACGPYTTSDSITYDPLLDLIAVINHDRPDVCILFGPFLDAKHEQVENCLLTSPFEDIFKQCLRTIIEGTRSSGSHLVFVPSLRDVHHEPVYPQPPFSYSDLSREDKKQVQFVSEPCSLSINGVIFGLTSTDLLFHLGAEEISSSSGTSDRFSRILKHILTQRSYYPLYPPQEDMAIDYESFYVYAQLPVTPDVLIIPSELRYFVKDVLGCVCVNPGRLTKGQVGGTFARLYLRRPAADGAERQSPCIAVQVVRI
# Chain of human DNA polymerase alpha (P49642 whole entry partner): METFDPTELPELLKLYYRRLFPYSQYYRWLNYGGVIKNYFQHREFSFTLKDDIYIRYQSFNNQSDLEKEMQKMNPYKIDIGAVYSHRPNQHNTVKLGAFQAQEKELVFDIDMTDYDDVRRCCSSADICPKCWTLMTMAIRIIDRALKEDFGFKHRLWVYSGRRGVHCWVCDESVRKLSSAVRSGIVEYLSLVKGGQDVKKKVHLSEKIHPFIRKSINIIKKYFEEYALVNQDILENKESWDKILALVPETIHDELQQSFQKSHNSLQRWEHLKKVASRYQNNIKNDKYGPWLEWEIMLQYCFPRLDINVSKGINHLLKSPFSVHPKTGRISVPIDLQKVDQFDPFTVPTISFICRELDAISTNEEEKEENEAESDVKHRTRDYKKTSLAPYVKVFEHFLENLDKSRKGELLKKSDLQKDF
# Chain of human DNA polymerase alpha (P49643 whole entry partner): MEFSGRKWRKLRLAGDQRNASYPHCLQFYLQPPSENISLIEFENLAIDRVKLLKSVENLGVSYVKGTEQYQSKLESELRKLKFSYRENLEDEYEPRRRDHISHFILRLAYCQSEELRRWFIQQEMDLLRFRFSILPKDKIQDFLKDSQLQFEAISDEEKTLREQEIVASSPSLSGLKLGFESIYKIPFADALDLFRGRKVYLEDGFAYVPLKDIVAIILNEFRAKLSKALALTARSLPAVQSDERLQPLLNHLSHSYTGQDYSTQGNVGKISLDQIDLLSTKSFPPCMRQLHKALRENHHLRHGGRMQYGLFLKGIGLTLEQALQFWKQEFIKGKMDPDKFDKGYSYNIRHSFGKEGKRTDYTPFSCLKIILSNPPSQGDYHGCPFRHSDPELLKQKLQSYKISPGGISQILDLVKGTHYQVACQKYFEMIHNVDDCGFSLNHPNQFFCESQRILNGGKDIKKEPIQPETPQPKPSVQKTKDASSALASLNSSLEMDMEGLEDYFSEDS
# Chain of herpes virus type 2 (HSV-2) DNA polymerase (P89453 whole entry): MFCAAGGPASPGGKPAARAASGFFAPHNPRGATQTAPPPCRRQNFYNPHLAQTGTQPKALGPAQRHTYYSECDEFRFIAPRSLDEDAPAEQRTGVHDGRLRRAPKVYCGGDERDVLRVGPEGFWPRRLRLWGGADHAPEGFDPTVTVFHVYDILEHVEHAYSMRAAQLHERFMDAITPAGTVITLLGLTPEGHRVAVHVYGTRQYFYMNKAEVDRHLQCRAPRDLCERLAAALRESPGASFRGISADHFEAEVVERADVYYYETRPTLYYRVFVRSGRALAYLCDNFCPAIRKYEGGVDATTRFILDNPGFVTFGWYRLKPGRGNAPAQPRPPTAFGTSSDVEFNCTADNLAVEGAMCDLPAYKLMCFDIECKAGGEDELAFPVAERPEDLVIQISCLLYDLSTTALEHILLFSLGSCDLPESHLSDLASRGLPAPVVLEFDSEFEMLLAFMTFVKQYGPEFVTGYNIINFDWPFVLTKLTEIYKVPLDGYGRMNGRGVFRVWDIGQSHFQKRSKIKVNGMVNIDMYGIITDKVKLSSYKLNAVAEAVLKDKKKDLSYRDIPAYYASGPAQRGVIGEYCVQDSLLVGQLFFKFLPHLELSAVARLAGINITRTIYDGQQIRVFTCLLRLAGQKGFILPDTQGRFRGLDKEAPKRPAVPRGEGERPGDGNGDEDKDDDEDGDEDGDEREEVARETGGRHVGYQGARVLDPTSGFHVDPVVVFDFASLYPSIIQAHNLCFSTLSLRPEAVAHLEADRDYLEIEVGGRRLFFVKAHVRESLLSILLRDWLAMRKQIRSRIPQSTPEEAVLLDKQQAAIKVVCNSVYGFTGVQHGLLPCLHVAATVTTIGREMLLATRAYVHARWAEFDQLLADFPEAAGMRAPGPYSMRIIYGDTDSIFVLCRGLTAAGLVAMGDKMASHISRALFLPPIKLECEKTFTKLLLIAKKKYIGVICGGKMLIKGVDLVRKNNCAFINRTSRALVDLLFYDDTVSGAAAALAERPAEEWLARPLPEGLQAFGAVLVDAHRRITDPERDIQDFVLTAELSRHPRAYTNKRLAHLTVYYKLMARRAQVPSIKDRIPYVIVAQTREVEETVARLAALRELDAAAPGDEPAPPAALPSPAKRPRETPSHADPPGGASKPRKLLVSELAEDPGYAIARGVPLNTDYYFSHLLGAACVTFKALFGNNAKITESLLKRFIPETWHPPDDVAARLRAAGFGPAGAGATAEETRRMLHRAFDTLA
smiles,measurement,setting,value
Nc1nc2c(ncn2COCCOP(=O)(O)OP(=O)(O)OP(=O)(O)O)c(=O)[nH]1 [acyclo-GTP],Preference for acyclo-GTP over ddGTP,"[1]; 9°N (exo-)/A485L, FIG. 9",approximately 9 fold
same,"Preference for insertion, acyclo-GTP versus ddGTP",[2],preference for insertion of acyclo-GTP over ddGTP
same,"Preference for insertion, acyclo-GTP versus ddGTP",[3],preference for insertion of acyclo-GTP over ddGTP
Nc1ccn([C@H]2CC[C@@H](COP(=O)(O)OP(=O)(O)OP(=O)(O)O)O2)c(=O)n1 [ddCTP],"Enhancement of incorporation, variant compared to parental enzyme","[1]; 9°N (exo-)/A485L vs 9°N (exo-), FIG. 6",about 10 fold
same,"Enhancement of incorporation, variant compared to parental enzyme",[4],about 10 fold
Nc1nc2c(ncn2[C@H]2CC[C@@H](COP(=O)(O)OP(=O)(O)OP(=O)(O)O)O2)c(=O)[nH]1 [ddGTP],"Preference for insertion, ddGTP versus acyclo-GTP",[5],strong preference
same,Preference for ddGTP over acyclo-GTP,[6],~27 fold
